Several values for one entry are separate records, joined by “and”; a condition that tells them apart may be missing. Equal values may be shown once. Read-outs that look alike come from different tables or passages of the source. One block for each molecule: values may come before it.
What was measured:
EZH2 = tested on: EZH2; set-up: method as in PMID 23023262; conditions: EZH2 over EZH1 ref 52; cited from earlier work
SIRT7 [1] = target: T1, SIRT7 (Homo sapiens, UniProt Q9NRC8); experiment: Surface plasmon resonance (SPR) binding assay
T1 construct: His-tagged full length SIRT7 protein expression from BL21 bacterial cells; His; made in house; host or cells: E. coli BL21
T1 sequence (Q9NRC8 1-400): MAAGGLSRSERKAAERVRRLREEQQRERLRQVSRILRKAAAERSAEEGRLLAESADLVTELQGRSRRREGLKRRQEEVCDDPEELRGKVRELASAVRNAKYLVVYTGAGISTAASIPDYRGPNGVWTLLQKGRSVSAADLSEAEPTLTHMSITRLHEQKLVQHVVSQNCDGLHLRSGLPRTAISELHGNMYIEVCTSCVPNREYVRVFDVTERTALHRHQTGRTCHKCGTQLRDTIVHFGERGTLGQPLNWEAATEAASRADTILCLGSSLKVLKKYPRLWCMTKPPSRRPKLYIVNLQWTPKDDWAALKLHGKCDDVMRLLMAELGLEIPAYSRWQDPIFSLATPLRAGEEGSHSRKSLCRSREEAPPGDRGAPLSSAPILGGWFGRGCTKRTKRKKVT
Protocol: All SPR measurements were performed on Biacore T200 instrument (GE Healthcare) with running buffer (PBS+5% DMSO) at room temperature. The bacterially purified His-SIRT7 was covalently immobilized onto Series S Sensor Chip CM5 by a standard amino-coupling procedure in 10 mM sodium acetate (pH 5.5). Two-fold serial dilutions of YZL-51N or NAD^+ in 5% DMSO passed through the sensor chip at 30 μL/min for 120 s, followed by 240 s of dissociation flow. The KD value was calculated based on the concentration dependence of the observed steady-state response using Biacore T200 Evaluation software Version 1.0 (GE Healthcare).

SIRT7 [2] = target: T1, SIRT7; experiment: Fluor de Lys (FDL) SIRT7 deacetylase assay; format: biochemical; conditions: for IC50: 0.5 mM NAD+, read-out: FDL assay SIRT7 inhibition IC50; for inhibition at 50 µM: 50 μM compound, 37°C, 90 min; for Dose-dependent inhibition of SIRT7: FDL assay, Figure S5
Excerpt: To assess SIRT7 deacetylase activity using Fluor de Lys (FDL) assays, the peptide […]∗QLAGGK was synthesized and characterized as a substrate using fluorophore 7-methoxycoumarin-4-acetic acid (∗, MCA) (Figures 1A, S1A, and S1B). In the presence of both SIRT7 and NAD^+, a luminescence response was detected in the linear range (y = 31.88x + 2396, R^2 = 0.9742) (Figure 1B). We screened our preserved library of 242 natural products to find potential SIRT7 inhibitors.
For in vitro analysis of SIRT7 deacetylation, the reaction system contained 10 μg His-SIRT7, 0.5 mM NAD^+, 10 μM […](MCA)QLAGGK (synthesized by QYAOBIO; details in the supplementary files), 50 μM potential compound or 3 mM NAM, and assay buffer (10 mM Tris-HCl pH 8.0, 4 mM MgCl2, 0.2 mM DTT and 10% Glycerol). The deacetylation reactions were incubated at 37°C for 90 min. The fluorescence intensity was measured with a microplate reader (Synergy H4 Hybrid Reader, Biotek) at an excitation wavelength of 260 nm and detected at an emission spectrum of 300–600 nm. The IC50 values were calculated at 450 nm emission by GraphPad Prism 8.

SIRT7 [3] = target: T1, SIRT7; experiment: Fluor de Lys (FDL) SIRT7 deacetylase assay; format: biochemical; conditions: 2 mM NAM treatment
SIRT7 [4] = target: T1, SIRT7; experiment: Dot blot assay of SIRT7-mediated H3K18ac peptide deacetylation; format: biochemical; conditions: for Rescue of H3K18 acetylation: dot blot screening, 50 μM; for EC50: read-out: Dot blot assay H3K18ac rescue EC50
Excerpt: To avoid the bias of the fluorescence assay, we also performed dot blot assays for the effects of natural compounds on SIRT7-mediated deacetylation of H3K18ac peptides in vitro (Figures S2A and S2B). In this system, SIRT7 mediated a dose-dependent deacetylation of H3K18ac (Figure 1D). […] Based on comparisons of all the candidates, we selected YZL-51N as the best for further investigation (Figure 1F). […] Thus, P. americana derived YZL-51N was confirmed as an identified SIRT7 inhibitor using parallel peptide-based screening platforms.
For dot blot assays, the reaction system containing 10 μg His-SIRT7, 0.5 mM NAD^+, 10 μM biotin-H3K18ac peptides and 50 μM potential compound was mixed and incubated at 37°C for 90 min. Samples were transferred to a polyvinylidene difluoride (PVDF) membrane, and then blocked with 5% skimmed milk. The blots were probed with H3K18ac primary antibody at RT for 2 h and then incubated with secondary antibody at RT for 1h. The bands were visualized using ECL substrates (Thermo Fisher, USA) on Tanon 5200SF Imaging System.

Protocol for HCT116 cells: Cells were seeded into 96 well plates (4,000 cells/well). […] The cells were then washed and re-cultured in fresh medium for 48 h. […] Formazan were generated by the addition of 100 μL DMSO and shaking for 30 min. The absorbance of samples was measured at 570 nm using a microtiter plate reader (BioTek).

Compound: Cc1cc(C)c(CNC(=O)c2cc(-c3ccc(CN4CCOCC4)cc3)cc3c2cnn3C2CCCC2)c(=O)[nH]1 [EPZ005687]
Selectivity against EZH1 (EZH2): 50 fold

Weaker affinity to SIRT7 than YZL-51N (SIRT7 [1]): 200 fold
Kd (SIRT7 [1]; immobilized His-SIRT7): > 200 µM
Compound: NC(=O)c1ccc[n+]([C@@H]2O[C@H](COP(=O)([O-])OP(=O)(O)OC[C@H]3O[C@@H](n4cnc5c(N)ncnc54)[C@H](O)[C@@H]3O)[C@@H](O)[C@H]2O)c1 [NAD^+]

Compound: NC(=O)c1cccnc1 [NAM, nicotinamide, reference compound]
IC50 (SIRT7 [2]; 0-30 mM NAM): 2290 µM and ~2290 µM
inhibition at 2000 µM (SIRT7 [3]): 44.4%

inhibition at 50 µM (SIRT7 [2]): 47.5%
Dose-dependent inhibition of SIRT7 (SIRT7 [2]): did not show a dose-dependent inhibition
Compound: COc1ccc(C(C)=O)cc1OC [compound 1]

inhibition at 50 µM (SIRT7 [2]): 12.3%
Rescue of H3K18 acetylation (SIRT7 [4]): rescued H3K18 acetylation
EC50 (SIRT7 [4]): 70.2 µM
Compound: COC(=O)/C(=C\C(=O)c1ccc(OC)c(OC)c1)c1ccc(OC)c(OC)c1 [compound 6]

inhibition at 50 µM (SIRT7 [2]): 52.7%
IC50 (SIRT7 [2]; 10 μM peptide): > 30 µM
Dose-dependent inhibition of SIRT7 (SIRT7 [2]): did not show a dose-dependent inhibition
Rescue of H3K18 acetylation (SIRT7 [4]): rescued H3K18 acetylation
EC50 (SIRT7 [4]): 32 µM
Compound: O=C(O)/C(=C\C(=O)c1ccc(O)c(O)c1)c1ccc(O)c(O)c1 [compound 7]

Compound: COc1cc([C@@H]2c3cc4c(cc3[C@@H](O[C@@H]3O[C@@H]5CO[C@@H](C)O[C@H]5[C@H](O)[C@H]3O)[C@H]3COC(=O)[C@H]23)OCO4)cc(OC)c1O [etoposide, reference compound]
Cell proliferation (%, Mean ± SD) (HCT116 cells; single agent 5 μM): 92.7 ± 4.1%
Cell proliferation (%, Mean ± SD) (HCT116 cells; single agent 10 μM): 82.5 ± 6.0%
Cell proliferation (%, Mean ± SD) (HCT116 cells; single agent 20 μM): 73.5 ± 6.0%
Cell proliferation (%, Mean ± SD) (HCT116 cells; single agent 40 μM): 48.5 ± 2.4%
Cell proliferation (%, Mean ± SD) (HCT116 cells; single agent 80 μM): 27.0 ± 1.9%

— PMC11214487, “YZL-51N functions as a selective inhibitor of SIRT7 by NAD^+ competition to impede DNA damage repair” (iScience, 2024)
